Earlier results on 1 molecule are cited in US5849263A, “Pharmaceutical compositions containing alkylaryl polyether alcohol polymer” (priority 1996, dated 1998).

For this data set the following is noted: in vivo.

Consider `CCCCCCCCCCCCCCCC(=O)OCC(COP(=O)([O-])OCC[N+](C)(C)C)OC(=O)CCCCCCCCCCCCCCC` (stereo not shown) [DPPC, diphalmitoylphosphatidyl choine], for which the “undesired features / side effects of formulation” value is “mucus plugging of the airways and obstruction of ventilator circuits”.
